Laboratory results: patent US5230897A, “Transdermal pentamidine” (priority 1991, dated 1993)
Several values for one entry are separate records, joined by “and”; a condition that tells them apart may be missing. Identical values can stand only once. Like-named read-outs stand apart in the source and are kept apart here. Values belong to the molecule of their own block, whether it stands above or below them.

Legend:
[1] = Procedure: The in vitro studies described herein measured the rate of pentamidine transport across skin excised from a "nude" mouse. The skin is placed in a vertical two-chambered device. The skin partitions between a donor compartment containing a formulation to be tested and a receptor compartment containing the aqueous medium. The skin is clamped in place with skin epidermis facing the donor compartment. A water jacket maintains a constant temperature (37° C.).
The following pharmaceutical formulations were prepared by dissolving any dry ingredients (i.e. pentamidine isethionate, terpene, methyl paraben, propyl paraben) in the solvent (i.e. isopropyl alcohol/water or propylene glycol/water). […] Gentle stirring was then continued for the next 15 minutes or until the solution thickened. When polyquaternium-10 is the polymer heating was required to make the formulation gel.

[2] = rhesus monkey, in vivo
[3] = Pentamidine pharmacokinetics after IV infusion in Rhesus monkeys (plasma, urine); format: in vivo
Procedure: Pentamidine was administered to four Rhesus monkeys by an IV infusion of 1 hr duration which was designed to deliver 4 mg drug/kg animal weight. Urine samples were obtained at -24 to 0 hr, 0 to 3 hr, 3 to 7 hr, 7 to 24 hr and 24 to 48 hr. Blood (2 ml) was withdrawn from an arm vein at -24 hr, 0.5 hr, 1 hr, 2 hr, 3 hr, 5 hr, 7 hr, 24 hr and 48 hr after the end of the IV infusion. Plasma was obtained from the heparinized blood by centrifugation.

[4] = Pentamidine pharmacokinetics after transdermal application in Rhesus monkeys (plasma, urine, residual analysis)

SMILES: CC(C)[C@@H]1CC[C@@H](C)C[C@@H]1O (relative stereo) [neomenthol]
penetration enhancement for transdermal delivery of pentamidine ([1]; result in words): effective penetration enhancers

penetration enhancement for transdermal delivery of pentamidine ([1]; result in words): effective penetration enhancers
SMILES: CC12CCC(CC1=O)C2(C)C (stereo not drawn) [camphor]

penetration enhancement for transdermal delivery of pentamidine ([1]; result in words): effective penetration enhancers
SMILES: Cc1ccc(C(C)C)cc1O [carvacrol]

penetration enhancement for transdermal delivery of pentamidine [1]: effective penetration enhancers
SMILES: C=C(C)C1CC=C(C)[C@@H](O)C1 (stereo partly drawn) [carveol]

SMILES: C=C(C)C1CC=C(C)C(=O)C1 (stereo not drawn) [carvone]
penetration enhancement for transdermal delivery of pentamidine ([1]; result in words): effective penetration enhancers

SMILES: CC(C)=CCCC(C)=CC=O [citral]
penetration enhancement for transdermal delivery of pentamidine ([1]; result in words): effective penetration enhancers

penetration enhancement for transdermal delivery of pentamidine ([1]; result in words): effective penetration enhancers
SMILES: C=C(C)C1CCC(C)C(O)C1 (stereo not drawn) [dihydrocarveol]

penetration enhancement for transdermal delivery of pentamidine ([1]; result in words): effective penetration enhancers
SMILES: C=C(C)C1CCC(C)C(=O)C1 (stereo not drawn) [dihydrocarvone]

SMILES: C=C(C)[C@@H]1CC[C@@H](C)C[C@H]1O [isopulegol]
penetration enhancement for transdermal delivery of pentamidine ([1]; result in words): effective penetration enhancers

SMILES: C=CC(C)(O)CCC=C(C)C (stereo not drawn) [linalol]
penetration enhancement for transdermal delivery of pentamidine ([1]; result in words): effective penetration enhancers

SMILES: CC1CCC(C(C)C)C(O)C1 (stereo not drawn) [menthol]
penetration enhancement for transdermal delivery of pentamidine ([1]; result in words): effective penetration enhancers

SMILES: CC(C)[C@@H]1CC[C@@H](C)CC1=O [menthone]
penetration enhancement for transdermal delivery of pentamidine ([1]; result in words): effective penetration enhancers

SMILES: N=C(N)c1ccc(OCCCCCOc2ccc(C(=N)N)cc2)cc1 [pentamidine, 4,4'-[1,5-Pentanediylbis(oxy)]bisbenzenecarboximidamide]
blood levels of pentamidine by transdermal delivery [2]: effective blood levels of pentamidine can be achieved by transdermal delivery
Total Clearance, IV dose ([3]; DOSEiv/AUCiv, individual monkeys 1, 2, 3, 4, 4 mg/kg): 39.27 lt/h and 24.18 lt/h and 20.38 lt/h and 19.38 lt/h
AUC, IV (0-5 h) ([3]; plasma, IV 4 mg/kg, 1 hr infusion, individual monkeys 1, 2, 3, 4, 4 mg/kg, 300 min): 428 (ng/ml) h and 719 (ng/ml) h and 883 (ng/ml) h and 784 (ng/ml) h
AUC at 5 h ([3]; rhesus monkey, plasma, iv, 4 mg/kg, AUC, IV (0-5 h), Average (SD), IV 4 mg/kg, 1 hr infusion, average of 4 monkeys): 704 ng·h/mL
clearance ([3]; rhesus monkey, plasma, iv, 4 mg/kg, DOSEiv/AUCiv, average of 4 monkeys, read-out: Total Clearance, IV dose, Average (SD) (converted)): 430 mL/min
dose excreted at 48 h ([3]; rhesus monkey, urine, iv, 4 mg/kg, IV, average of 4 monkeys, read-out: % Dose excreted in urine, IV dose 0-48 h, Average (SD)): 2.28%
CL renal at 48 h ([3]; rhesus monkey, urine, iv, 4 mg/kg, amount in urine (0-48 h)/AUCiv, average of 4 monkeys, read-out: Renal Clearance, IV dose, Average (SD) (converted)): 10 mL/min
Urine Cum. Pentam., IV 0-48 h, Average (SD) ([3]; urine, IV, average of 4 monkeys): 0.39 (0.27) mg
Urine Cum. Pentam., IV 0-48 h ([3]; urine, IV, individual monkeys 1, 2, 3, 4): 0.360 mg and 0.691 mg and 0.473 mg and 0.054 mg
% Absolute Bioavail. ([4]; (AUCtrans/AUCiv) × (DOSEiv/DOSEtrans) × 100, individual monkeys 1, 2, 3, 4): 99.2% and 29.03% and 18.99% and 27.19%
residual pentamidine recovered from transdermal chambers ([4]; chambers removed 24 hr after application): Only small amounts of the original dose of pentamidine were recovered
% Dose absorbed excreted in urine, transdermal dose 0-48, Average (SD) ([4]; dose absorbed from urine % bioavailability, average of 4 monkeys): 2.26 (1.45) %
% Dose absorbed excreted in urine, transdermal dose 0-48 ([4]; dose absorbed from urine % bioavailability, individual monkeys 1, 2, 3, 4): 2.15% and 3.88% and 2.62% and 0.38%
% Bioavailability ([4]; dose-corrected ratio of total pentamidine excreted in urine, transdermal vs IV, individual monkeys 1, 2, 3, 4): 50.34% and 19.32% and 73.28% and 85.62%
AUC, Trans (0-72 hr) ([4]; plasma, transdermal 292 mg, individual monkeys 1, 2, 3, 4, 4320 min): 7407 (ng/ml) h and 3426 (ng/ml) h and 2721 (ng/ml) h and 4384 (ng/ml) h
bioavailability ([4]; rhesus monkey, plasma, topical or ocular, 292 mg, % Absolute Bioavail., Average (SD), (AUCtrans/AUCiv) × (DOSEiv/DOSEtrans) × 100, average of 4 monkeys): 43.6%
AUC at 72 h ([4]; rhesus monkey, plasma, topical or ocular, 292 mg, AUC, Trans (0-72 hr), Average (SD), transdermal 292 mg, average of 4 monkeys): 4480 ng·h/mL
Fa at 24 h ([4]; rhesus monkey, residual in pads, topical or ocular, 292 mg, % Absorbed (from residual analysis in the pads), Average (SD), transdermal, average of 4 monkeys): 57.7%
bioavailability ([4]; rhesus monkey, urine, topical or ocular, 292 mg, % Bioavailability, Average (SD), dose-corrected ratio of total pentamidine excreted in urine, transdermal vs IV, average of 4 monkeys): 57.1%
% Absorbed (from residual analysis in the pads) ([4]; transdermal, individual monkeys 1, 2, 3, 4, 1440 min): 70.9% and 54.4% and 58.8% and 46.5%
Urine Cum. Pentam., Trans. 0-48 h, Average (SD) ([4]; urine, transdermal, average of 4 monkeys): 2.98 (1.97) mg
Urine Cum. Pentam., Trans. 0-48 h ([4]; urine, transdermal, individual monkeys 1, 2, 3, 4): 3.16 mg and 2.18 mg and 5.61 mg and 0.95 mg

SMILES: CC(C)=C1CC[C@@H](C)CC1=O [pulegone]
penetration enhancement for transdermal delivery of pentamidine ([1]; result in words): effective penetration enhancers

SMILES: C/C=C/c1ccc(OC)cc1 [t-anethole]
penetration enhancement for transdermal delivery of pentamidine ([1]; result in words): effective penetration enhancers

penetration enhancement for transdermal delivery of pentamidine [1]: effective penetration enhancers
SMILES: CC1=CCC(O)(C(C)C)CC1 (stereo not drawn) [terpene-4-ol]

SMILES: Cc1ccc(C(C)C)c(O)c1 [thymol]
penetration enhancement for transdermal delivery of pentamidine ([1]; result in words): effective penetration enhancers

SMILES: CC1=CCC(C(C)(C)O)CC1 (stereo not drawn) [α-terpineol]
penetration enhancement for transdermal delivery of pentamidine ([1]; result in words): effective penetration enhancers
